One assay has as its target T1, BRD4 (BDI_K57-E168) (Homo sapiens, UniProt O60885).
T1 construct: BD1: amino acids K57-E168; made in house
The assay is described as follows: TR-FRET bromodomain binding assay, BRD4 first bromodomain. Conditions: His-tagged BD1, Alexa647-labeled probe 100 nM; Ki calculated from IC50. Summed up: (§1)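 Affinity for each isolated His-tagged domain was measured as competition with a fluorescent Alexa647 BET-inhibitor probe in a TR-FRET format at pH 6.0, 1 h room temperature incubation. Ki values were calculated from fitted IC50s, probe Kd and probe level (100 nM BDI, 30 nM BDII).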

The target in another assay is T2, BRD4 (BDII_E352-M457) (Homo sapiens, UniProt O60885).
T2 construct: made in house
The assay is described as follows: TR-FRET bromodomain binding assay, BRD4 second bromodomain. Particulars: His-tagged BD2, Alexa647-labeled probe 30 nM; Ki calculated from IC50. Summed up:
as §1

Assay [1] concerns breast cancer cell line MX-1. The assay is described as follows: MX-1 cell line proliferation assay. Format: cell-based. Particulars: MX-1 cells, 3-day proliferation assay, Cell Titer Glo, read-out: Cellular proliferation: EC50. The protocol: The impact of compounds of the Examples on cancer cell proliferation was determined using the breast cancer cell line MX-1 (ATCC) in a 3-day proliferation assay and the data are reported in Table 1. MX-1 cells were maintained in RPMI 1640 medium (Sigma) supplemented with 10% FBS at 37° C. and an atmosphere of 5% CO2. For compound testing, MX-1 cells were plated in 96-well black bottom plates at a density of 5000 cells/well in 90 μL of culture media and incubated at 37° overnight to allow cell adhesion and spreading. Compound dilution series were prepared in DMSO via a 3-fold serial dilution from 3 mM to 0.1 μM. The DMSO dilution series were then diluted 1:100 in phosphate buffered saline, and 10 μL of the resulted solution were added to the appropriate wells of the MX-1 cell plate. The final compound concentrations in the wells were 3, 1, 0.3, 0.1, 0.03, 0.01, 0.003, 0.001, 0.0003 and 0.0001 μM.
Luminescence readings from the Cell Titer Glo assay were normalized to the DMSO treated cells and analyzed using the GraphPad Prism software with sigmoidal curve fitting to obtain EC50s. The minimum significant ratio (MSR) was determined to evaluate assay reproducibility (Eastwood et al., (2006) J Biomol Screen, 11: 253-261).

Ki and EC50 data for 20 compounds are collected here from patent US9493411B2 (AbbVie Inc., priority 2013, dated 2016).

Each structure is given as a SMILES string. Where two headings read alike, the source gives them in different places. Bounds are passed on as bounds.

Usually Ki stands for the equilibrium dissociation constant of an inhibitor or competing ligand from its target.

Consider `Cc1[nH]c(-c2ccccc2NCC2CCOC2)cc1C(N)=O` (single isomer, unassigned) [Example 19], for which the Ki at BRD4 (BDI_K57-E168) was 131 nM; on BRD4 (BDII_E352-M457), 1830 nM. The EC50 in assay [1] worked out at 2360 nM.
Consider `Cc1[nH]c(-c2ccccc2NCc2ccc3[nH]ccc3c2)cc1C(N)=O` [Example 56, 5-{2-[(1H-indol-5-ylmethyl)amino]phenyl}-2-methyl-1H-pyrrole-3-carboxamide], for which the Ki is 1630 nM on BRD4 (BDI_K57-E168) and 2690 nM at BRD4 (BDII_E352-M457). The EC50 in assay [1] (Homo sapiens, MX1, 72 h) is over 10000 nM.
The matching figures for `Cc1[nH]c(-c2ccccc2NCCC2CCN(C(=O)OC(C)(C)C)CC2)cc1C(N)=O` [Example 44, tert-butyl 4-(2-{[2-(4-carbamoyl-5-methyl-1H-pyrrol-2-yl)phenyl]amino}ethyl)piperidine-1-carboxylate]: 322 nM, 1790 nM and over 10000 nM.
For `Cc1[nH]c(-c2ccc(-c3ccc(CN4CCN(C)CC4)cc3)cc2)cc1C(N)=O` [Example 97, 2-methyl-5-{4′-[(4-methylpiperazin-1-yl)methyl]biphenyl-4-yl}-1H-pyrrole-3-carboxamide] the same measures were 1410 nM, 1870 nM and 15300 nM.
Take `Cc1[nH]c(-c2ccccc2-n2cnc3ccc(O)cc32)cc1C(N)=O` [Example 145, 5-[2-(6-hydroxy-1H-benzimidazol-1-yl)phenyl]-2-methyl-1H-pyrrole-3-carboxamide]: the Ki on BRD4 (BDI_K57-E168) is 1190 nM; at BRD4 (BDII_E352-M457), 3920 nM. The EC50 in assay [1] (Homo sapiens, MX1, 72 h) is over 10000 nM.
`Cc1[nH]c(-c2ccccc2NCC2CCOC2)cc1C(N)=O` (stereo not drawn) [Example 17, 2-methyl-5-{2-[(tetrahydrofuran-3-ylmethyl)amino]phenyl}-1H-pyrrole-3-carboxamide]: the inhibition constant Ki at BRD4 (BDI_K57-E168) is 248 nM; at BRD4 (BDII_E352-M457), 1870 nM. Besides, the EC50 in assay [1] (Homo sapiens, MX1, 72 h) is 1500 nM.
Consider `Cc1[nH]c(-c2ccccc2Oc2ccc(Cc3ccccc3)cc2)cc1C(N)=O` [Example 121, 5-[2-(4-benzylphenoxy)phenyl]-2-methyl-1H-pyrrole-3-carboxamide], for which the Ki is 776 nM on BRD4 (BDI_K57-E168) and 10200 nM on BRD4 (BDII_E352-M457). Also, the EC50 in assay [1] (Homo sapiens, MX1, 72 h) was over 10000 nM.
Turning to `Cc1[nH]c(-c2ccccc2NC[C@H]2CC[C@@H](N)CC2)cc1C(N)=O` [Example 48, 5-(2-{[(cis-4-aminocyclohexyl)methyl]amino}phenyl)-2-methyl-1H-pyrrole-3-carboxamide], the results for the Ki at BRD4 (BDI_K57-E168) and on BRD4 (BDII_E352-M457) were 224 nM and 6220 nM, respectively. Also, in assay [1] (Homo sapiens, MX1, 72 h), the EC50 is 9580 nM.
With `Cc1[nH]c(-c2ccccc2Oc2ccccc2F)cc1C(N)=O` [Example 117, 5-[2-(2-fluorophenoxy)phenyl]-2-methyl-1H-pyrrole-3-carboxamide], the inhibition constant Ki at BRD4 (BDI_K57-E168) is 391 nM; on BRD4 (BDII_E352-M457), 725 nM. For the same compound, in assay [1] (Homo sapiens, MX1, 72 h), the EC50 is 1350 nM.
With `Cc1[nH]c(-c2cc(S(N)(=O)=O)ccc2Oc2ccc(F)cc2F)cc1C(N)=O` [Example 168, 5-[2-(2,4-difluorophenoxy)-5-sulfamoylphenyl]-2-methyl-1H-pyrrole-3-carboxamide], the Ki at BRD4 (BDI_K57-E168) was 106 nM; at BRD4 (BDII_E352-M457), 757 nM. Besides, the EC50 in assay [1] (Homo sapiens, MX1, 72 h) is over 3000 nM.
Regarding `Cc1[nH]c(-c2ccccc2NC2CCOCC2)cc1C(N)=O` [Example 70, 2-methyl-5-[2-(tetrahydro-2H-pyran-4-ylamino)phenyl]-1H-pyrrole-3-carboxamide], the Ki at BRD4 (BDI_K57-E168) is 434 nM; on BRD4 (BDII_E352-M457) it was 4290 nM. Also, the EC50 in assay [1] (Homo sapiens, MX1, 72 h) is over 3000 nM.
As to `Cc1[nH]c(-c2ccccc2NCC2CCNCC2)cc1C(N)=O` [Example 43, 2-methyl-5-{2-[(piperidin-4-ylmethyl)amino]phenyl}-1H-pyrrole-3-carboxamide], the Ki was 469 nM at BRD4 (BDI_K57-E168) and 11000 nM at BRD4 (BDII_E352-M457). Further, in assay [1] (Homo sapiens, MX1, 72 h), the EC50 was over 10000 nM.
Regarding `Cc1[nH]c(-c2cc(CCO)ccc2OCc2ccccc2)cc1C(N)=O` [Example 167, 5-[2-(benzyloxy)-5-(2-hydroxyethyl)phenyl]-2-methyl-1H-pyrrole-3-carboxamide], the inhibition constant Ki is 627 nM at BRD4 (BDI_K57-E168) and 2250 nM on BRD4 (BDII_E352-M457). In addition, the EC50 in assay [1] (Homo sapiens, MX1, 72 h) was over 3000 nM.
Take `Cc1[nH]c(-c2ccccc2Oc2ccc(Cl)cc2F)cc1C(N)=O` [Example 129, 5-[2-(4-chloro-2-fluorophenoxy)phenyl]-2-methyl-1H-pyrrole-3-carboxamide]: the Ki was 281 nM on BRD4 (BDI_K57-E168) and 2240 nM at BRD4 (BDII_E352-M457). In addition, the EC50 in assay [1] (Homo sapiens, MX1, 72 h) is 2250 nM.
Regarding `Cc1[nH]c(-c2cccc(-c3cccc(CN4CCN(C)CC4)c3)c2)cc1C(N)=O` [Example 158, 2-methyl-5-{3′-[(4-methylpiperazin-1-yl)methyl]biphenyl-3-yl}-1H-pyrrole-3-carboxamide], the Ki at BRD4 (BDI_K57-E168) is 1500 nM; on BRD4 (BDII_E352-M457), 2140 nM. The EC50 in assay [1] (Homo sapiens, MX1, 72 h) was found to be 7750 nM.
Regarding `Cc1[nH]c(-c2ccccc2Oc2ccc3[nH]ccc3c2)cc1C(N)=O` [Example 130, 5-[2-(1H-indol-5-yloxy)phenyl]-2-methyl-1H-pyrrole-3-carboxamide], the inhibition constant (Ki) is 471 nM on BRD4 (BDI_K57-E168) and 1220 nM at BRD4 (BDII_E352-M457). The EC50 in assay [1] (Homo sapiens, MX1, 72 h) amounted to 1770 nM.
The matching figures for `Cc1[nH]c(-c2ccccc2NCC2CCCC2)cc1C(N)=O` [Example 14, 5-{2-[(cyclopentylmethyl)amino]phenyl}-2-methyl-1H-pyrrole-3-carboxamide]: 209 nM, 722 nM and 465 nM.
Take `Cc1[nH]c(-c2ccccc2Oc2cccc3cnccc23)cc1C(N)=O` [Example 125, 5-[2-(isoquinolin-5-yloxy)phenyl]-2-methyl-1H-pyrrole-3-carboxamide]: the inhibitory constant (Ki) at BRD4 (BDI_K57-E168) was 180 nM; at BRD4 (BDII_E352-M457), 192 nM. Besides, in assay [1] (Homo sapiens, MX1, 72 h), the EC50 was 1600 nM.
Consider `Cc1[nH]c(-c2ccccc2Oc2cccc3ncccc23)cc1C(N)=O` [Example 128, 2-methyl-5-[2-(quinolin-5-yloxy)phenyl]-1H-pyrrole-3-carboxamide], for which the figures for the Ki at BRD4 (BDI_K57-E168) and at BRD4 (BDII_E352-M457) were 27.3 nM and 318 nM, respectively. The EC50 in assay [1] (Homo sapiens, MX1, 72 h) was determined as 400 nM.
Consider `Cc1[nH]c(-c2ccccc2NCC2CCOC2)cc1C(N)=O` (single isomer, unassigned) [Example 18], for which the results for the inhibition constant Ki at BRD4 (BDI_K57-E168) and on BRD4 (BDII_E352-M457) were 183 nM and 2340 nM, respectively. In addition, the EC50 in assay [1] (Homo sapiens, MX1, 72 h) was 2850 nM.
